Laboratory results published in US11279733B2, “Peptide antibiotics” (priority 2017, dated 2022).
Like-named read-outs stand apart in the source and are kept apart here.

Tests used:
[1] = test system: Human kidney 2 (HK2) cells; test: Cytotoxicity, HK2 LDH assay
Procedure, shortened: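 HK2 cells were seeded at 2000 per well in DMEM/F12 with 10% FBS and left to attach for 24 h at 37 °C, 5% CO2. They were then exposed for 24 h to 3-fold peptide dilutions starting from 600 μM solutions in quadruplicate. LDH release was read at 450 nm, and CC50 was fitted from dose-response curves.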

[2] = test system: K. pneumoniae GN_102 PmxR
Procedure, shortened: (§1)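 Mid-log cultures grown in Mueller Hinton broth at 37° C were tested by 2-fold broth microdilution at 5×10^5 CFU/mL final. Compounds were dissolved in water and tested over a final range of 32 to 0.015 μg/mL.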

P. aeruginosa ATCC 27853 = test system: P. aeruginosa ATCC 27853
Procedure, shortened: as §1

A. baumannii ATCC 19606 = test system: A. baumannii ATCC 19606
Procedure, shortened: as §1

[3] = test system: K. pneumoniae ATCC BAA-2146, NDM-1 pos
Procedure, shortened: as §1

[4] = test system: K. pneumoniae ATCC 700603, MDR
Procedure, shortened: as §1

[5] = test system: K. pneumoniae GN_106, PmxR
Procedure, shortened: as §1

[6] = test system: P. aeruginosa GN_105, PmxR
Procedure, shortened: as §1

[7] = test system: P. aeruginosa GN_043, PmxR
Procedure, shortened: as §1

[8] = test system: S. aureus ATCC 25923, MSSA
Procedure, shortened: as §1

A. baumannii GN_093 PmxR = test system: A. baumannii GN_093 PmxR
Procedure, shortened: as §1

K. pneumoniae ATCC 13883 = test system: K. pneumoniae ATCC 13883
Procedure, shortened: as §1

E. coli ATCC 25922 = test system: E. coli ATCC 25922
Procedure, shortened: as §1

Neisseria gonorrhoeae = test: MIC determination, Neisseria gonorrhoeae; type: cell-based
Procedure, shortened: as §1

polymyxin B sulfate [PolymyxinB, reference compound]
CC50 ([1]; read-out: HK2 (LDH) CC50, HK2 cells, LDH): 125 µM
CC50 ([1]; read-out: HK2 (LDH)-CC50, HK2, LDH, 24 h): 125 µM
CC50 ([1]; read-out: HK2 (LDH)-CC50, HK2 cells, LDH): 125 µM
CC50 ([1]; read-out: HK2 (LDH)-CC50, Table 5, HK2 cells, LDH): 125 µM
CC50 ([1]; read-out: HK2 (LDH)-CC50, Table 6, HK2 cells, LDH): 125 µM
MIC K. pneumoniae GN_102 PmxR [2]: 64 µg/mL
MIC K. pneumoniae GN_102 PmxR ([2]; K. pneumoniae GN_102 PmxR): 64 µg/mL
MIC, K. pneumoniae Cl Koprana 10065 0661:1, PmxR ([2]; Table 5, polymyxin-resistant): 64 µg/mL
MIC K. pneumoniae GN_102 PmxR ([2]; Table 6, polymyxin-resistant): 64 µg/mL
MIC K. pneumoniae GN_102 PmxR ([2]; polymyxin-resistant): 64 µg/mL
MIC K. pneumoniae Cl Koprana 10065 0661:1 PmxR ([2]; strain name as in Table 11): 64 µg/mL
MIC P. aeruginosa ATCC 27853 (P. aeruginosa ATCC 27853): 0.5 µg/mL
MIC P. aeruginosa ATCC 27853 (P. aeruginosa ATCC 27853; P. aeruginosa ATCC 27853): 0.5 µg/mL
MIC, P. aeruginosa ATCC 27853 (P. aeruginosa ATCC 27853; Table 5): 0.5 µg/mL
MIC, P. aeruginosa ATCC 27853 (P. aeruginosa ATCC 27853; Table 6): 0.5 µg/mL
MIC A. baumannii ATCC 19606 (A. baumannii ATCC 19606): 0.25 µg/mL
MIC A. baumannii ATCC 19606 (A. baumannii ATCC 19606; A. baumannii ATCC 19606): 0.25 µg/mL
MIC, A. baumannii ATCC 19606 (A. baumannii ATCC 19606; Table 5): 0.25 µg/mL
MIC, A. baumannii ATCC 19606 (A. baumannii ATCC 19606; Table 6): 0.25 µg/mL
MIC K. pneumoniae ATCC BAA-2146, NDM-1 pos [3]: 0.25 µg/mL
MIC K. pneumoniae ATCC BAA-2146, NDM-1 pos ([3]; K. pneumoniae ATCC BAA-2146, NDM-1 pos): 0.25 µg/mL
MIC, K. pneumoniae ATCC BAA-2146, NDM-1 pos ([3]; Table 5): 0.25 µg/mL
MIC, K. pneumoniae ATCC BAA-2146, NDM-1 pos ([3]; Table 6): 0.25 µg/mL
MIC K. pneumoniae ATCC 700603, MDR [4]: 0.5 µg/mL
MIC K. pneumoniae ATCC 700603, MDR ([4]; K. pneumoniae ATCC 700603, MDR): 0.5 µg/mL
MIC, K. pneumoniae ATCC 700603, MDR ([4]; Table 5): 0.5 µg/mL
MIC, K. pneumoniae ATCC 700603, MDR ([4]; Table 6): 0.5 µg/mL
MIC K. pneumoniae GN_106, PmxR [5]: 64 µg/mL
MIC K. pneumoniae GN_106, PmxR ([5]; K. pneumoniae GN_106, PmxR): 64 µg/mL
MIC, K. pneumoniae Cl 138-16347-20362, PmxR ([5]; Table 5, polymyxin-resistant): 64 µg/mL
MIC K. pneumoniae GN_106, PmxR ([5]; Table 6, polymyxin-resistant): 64 µg/mL
MIC K. pneumoniae GN_106, PmxR ([5]; polymyxin-resistant): 64 µg/mL
MIC K. pneumoniae Cl 183-16357-20352, PmxR ([5]; strain name as in Table 11): 64 µg/mL
MIC P. aeruginosa GN_105, PmxR [6]: >128 µg/mL
MIC P. aeruginosa GN_105, PmxR ([6]; P. aeruginosa GN_105, PmxR): >128 µg/mL
MIC, P. aeruginosa PA9704, PmxR ([6]; Table 5, polymyxin-resistant): >128 µg/mL
MIC P. aeruginosa GN_105, PmxR ([6]; Table 6, polymyxin-resistant): >128 µg/mL
MIC P. aeruginosa GN_105, PmxR ([6]; polymyxin-resistant): >128 µg/mL
MIC P. aeruginosa PA9704, PmxR ([6]; strain name as in Table 11): >128 µg/mL
MIC P. aeruginosa GN_043, PmxR [7]: 64 µg/mL
MIC P. aeruginosa GN_043, PmxR ([7]; P. aeruginosa GN_043, PmxR): 64 µg/mL
MIC, P. aeruginosa FADDI-PA070, PmxR ([7]; Table 5, polymyxin-resistant): 64 µg/mL
MIC P. aeruginosa GN_043, PmxR ([7]; Table 6, polymyxin-resistant): 64 µg/mL
MIC P. aeruginosa GN_043, PmxR ([7]; polymyxin-resistant): 64 µg/mL
MIC, P. aeruginosa FADDI-PA070, PmxR ([7]; strain name as in Table 11): 64 µg/mL
MIC S. aureus ATCC 25923, MSSA [8]: >64 µg/mL
MIC S. aureus ATCC 25923, MSSA ([8]; S. aureus ATCC 25923, MSSA): >64 µg/mL
MIC, S. Aureus ATCC 25923, MSSA ([8]; Table 5): >64 µg/mL
MIC, S. aureus ATCC 25923, MSSA ([8]; Table 6): >64 µg/mL
MIC A. baumannii GN_093 PmxR (A. baumannii GN_093 PmxR): 64 µg/mL
MIC A. baumannii GN_093 PmxR (A. baumannii GN_093 PmxR; A. baumannii GN_093 PmxR): 64 µg/mL
MIC, A. baumannii Cl Ptyela 10073 4512:2, PmxR (A. baumannii GN_093 PmxR; Table 5, polymyxin-resistant): 64 µg/mL
MIC A. baumannii GN_093 PmxR (A. baumannii GN_093 PmxR; Table 6, polymyxin-resistant): 64 µg/mL
MIC A. baumannii GN_093 PmxR (A. baumannii GN_093 PmxR; polymyxin-resistant): 64 µg/mL
MIC A. baumannii Cl Ptyela 10073 4512:2, PmxR (A. baumannii GN_093 PmxR; strain name as in Table 11): 64 µg/mL
MIC K. pneumoniae ATCC 13883 (K. pneumoniae ATCC 13883): 1 µg/mL
MIC K. pneumoniae ATCC 13883 (K. pneumoniae ATCC 13883; K. pneumoniae ATCC 13883): 1 µg/mL
MIC, K. pneumoniae ATCC 13883 (K. pneumoniae ATCC 13883; Table 5): 1 µg/mL
MIC, K. pneumoniae ATCC 13883 (K. pneumoniae ATCC 13883; Table 6): 1 µg/mL
MIC E. coli ATCC 25922 (E. coli ATCC 25922): 0.25 µg/mL
MIC E. coli ATCC 25922 (E. coli ATCC 25922; E. coli ATCC 25922): 0.25 µg/mL
MIC, E. coli ATCC 25922 (E. coli ATCC 25922; Table 5): 0.25 µg/mL
MIC, E. coli ATCC 25922 (E. coli ATCC 25922; Table 6): 0.25 µg/mL
MIC N. gonorrhoeae F89 (Neisseria gonorrhoeae; strain F89): 9.38 µg/mL
MIC N. gonorrhoeae FA19 ATCC BAA-1838 (Neisseria gonorrhoeae; strain FA19 ATCC BAA-1838): 12.5 µg/mL
MIC N. gonorrhoeae FA1090 A25 ATCC 700825 (Neisseria gonorrhoeae; strain FA1090 A25 ATCC 700825): 10.42 µg/mL
MIC N. gonorrhoeae H041 (Neisseria gonorrhoeae; strain H041): 8.33 µg/mL
